Converted amounts (≈) assume the structure as drawn.
How the values were obtained:
[1] = test system: MDCK; assay: Minimum inhibitory concentration required to reduce influenza A H2N2 virus induced cytopathogenicity by 50% in madin-Darby canine kidney cells (MDCK); assay type: functional; details: Canis lupus familiaris
[2] = test system: MDCK; assay: Minimum inhibitory concentration required to reduce influenza A H3N2 (X31) virus induced cytopathogenicity by 50% in madin-Darby canine kidney cells (MDCK); assay type: functional; details: Canis lupus familiaris
[3] = test system: MDCK; assay: Minimum cytotoxic concentration required to cause a microscopically detectable alteration of normal cell morphology in madin-Darby canine kidney cells (MDCK); assay type: functional, Canis lupus familiaris

| Structure (SMILES) | MIC50 [1] | MIC50 [2] | MCC50 [3] |
| --- | --- | --- | --- |
| CCCN1CCC(C2C3CC4CC(C3)CC2C4)C1 (stereo unspecified) | > 28.2 µM | > 28.2 µM | 140.9 µM |
| CN1CCC(C2C3CC4CC(C3)CC2C4)C1 (stereo unspecified) | 18.8 µM (≈ 4.12 µg/mL) | 18.8 µM (≈ 4.12 µg/mL) | >156.4 µM |
| CCN1CCC(C2C3CC4CC(C3)CC2C4)C1 (stereo unspecified) | > 29.7 µM | > 29.7 µM | 148.2 µM |
| CCN(CC)CCN1CCC(C2C3CC4CC(C3)CC2C4)C1=O (stereo unspecified) | 11.1 µM (≈ 3.54 µg/mL) | 11.1 µM (≈ 3.54 µg/mL) | 92 µM |
| CN(C)CCN1CCC(C2C3CC4CC(C3)CC2C4)C1=O (stereo unspecified) | 14.7 µM (≈ 4.27 µg/mL) | 14.7 µM (≈ 4.27 µg/mL) | 122.4 µM |
| C1CC(C2C3CC4CC(C3)CC2C4)CN1 (stereo unspecified) | 0.6 µM (≈ 0.123 µg/mL) | 5 µM (≈ 1.03 µg/mL) | 124.4 µM |
| C1CCN(CCN2CCC(C3C4CC5CC(C4)CC3C5)C2)CC1 (stereo unspecified) | 1.7 µM (≈ 0.538 µg/mL) | 0.35 µM (≈ 0.111 µg/mL) | 14.6 µM |
| CCN(CC)CCN1CCC(C2C3CC4CC(C3)CC2C4)C1 (stereo unspecified) | 8.9 µM (≈ 2.71 µg/mL) | > 14.9 µM | 74.5 µM |
| CCCCN1CCC(C2C3CC4CC(C3)CC2C4)C1 (stereo unspecified) | > 26.9 µM | > 26.9 µM | 134.3 µM |
| CN(C)CCN1CCC(C2C3CC4CC(C3)CC2C4)C1 (stereo unspecified) | 0.38 µM (≈ 0.105 µg/mL) | 9.4 µM (≈ 2.6 µg/mL) | 78.7 µM |
| NC12CC3CC(CC(C3)C1)C2 [AMANTADINE] | 2.6 µM (≈ 0.393 µg/mL) | 12.8 µM (≈ 1.94 µg/mL) | >533.3 µM |
| NC(=O)c1ncn([C@@H]2O[C@H](CO)[C@@H](O)[C@H]2O)n1 [RIBAVIRIN] | 615 µM (≈ 150 µg/mL) | 123 µM (≈ 30 µg/mL) | >1024.6 µM |

— ChEMBL document CHEMBL1133908, “Novel 3-(2-adamantyl)pyrrolidines with potent activity against influenza A virus-identification of aminoadamantane derivatives bearing two pharmacophoric amine groups” (2001)
